From article PMC11396839, “Structure-Aided Computational Design of Triazole-Based Targeted Covalent Inhibitors of Cruzipain” (Molecules, 2024)
Like-named read-outs stand apart in the source and are kept apart here.

Columns and labels:
[1] = biological target: T1, recombinant CZP (cruzain) (Trypanosoma cruzi, UniProt P25779); test: CZP inhibition, cleavage of fluorogenic substrate Z-FR-AMC (initial screening and IC50); type: biochemical, T. cruzi; conditions: for times lower potency than the most active analogues (Ald-6 and Ald-10): CZP IC50 ratio
T1 construct: gift of Allison Doak and Prof; Brian Shoichet (University of California San Francisco)
Protocol: The previously reported methods were followed to evaluate the in vitro activity against CZP [91, 92, 93, 94]. Allison Doak and Prof. Brian Shoichet (University of California San Francisco, San Francisco, CA, USA) generously provided recombinant CZP (cruzain). The enzyme activity was measured by monitoring the cleavage of the fluorogenic substrate Z-FR-AMC at 25 °C. Unless stated otherwise, assays were performed using 2.5 μ M of substrate ( KM = 0.5 ± 0.1 μ M) and 0.5 nM CZP in a 0.1 M sodium acetate buffer, pH 5.5, 0.01% Triton X-100 and 2 mM β -mercaptoethanol. DMSO and 1 μ M E-64 were employed as negative and positive controls, respectively, in all assays. Fluorescence was monitored at 340/440 nm (excitation/emission) over time in a Biotec 87 Synergy 2 fluorimeter at the Multiuser Laboratory of the Biochemistry and Immunology Department (UFMG, Belo Horizonte, Brazil). All assays were performed in triplicate in two independent experiments.
Initial screening. For the initial screening against CZP, compounds at 100 μ M were tested against CZP with and without a 10min pre-incubation with the enzyme. The fluorescence was monitored for 10 min at 5 s intervals. DMSO and E-64 were employed in all assays as negative and positive controls, respectively. Initial velocities of the negative control (DMSO) were compared to those in the presence of compounds to calculate the percentage of inhibition. The reported values correspond to the mean and standard error of the mean (SEM) of experiments performed in triplicate in two independent experiments.
IC50 determination. Compounds in at least eight distinct compound concentrations (400 μ M, 100 μ M, 25 μ M, 6.25 μ M, 1.5 μ M, 0.4 μ M, 0.1 μ M and 0.025 μ M) were incubated with CZP for 10 min, and once the substrate was added, the fluorescence was monitored for 10 min at 5 s intervals. IC50 curves were obtained from a non-linear fit of the inhibition values versus the logarithmic concentration of the compounds. The reported IC50 values are the mean and SEM of two independent measurements performed in triplicate.

[2] = biological target: T2, recombinant human cathepsin L (hCatL) (Homo sapiens, UniProt P07711); test: hCatL screening, cleavage of Z-FR-AMC; type: biochemical; conditions: for inhibition at 100 µM: read-out: % hCatL inhib.
T2 construct: purchased Sigma-Aldrich
Protocol: The recombinant human cathepsin L (hCatL) (Sigma-Aldrich) was activated prior to the assays. First, 10 ng/ μ L of the enzyme was incubated in the activation buffer (50 mM MES, pH 6, 1 mM EDTA, 5mM DTT) for 30 min at 37 °C. hCatL activity was measured based on the cleavage of the fluorescent substrate Z-FR-AMC in a Biotec 87 Synergy 2 fluorimeter at the Multiuser Laboratory of the Biochemistry and Immunology Department (UFMG, Brazil). The assays were executed in 96-well round bottom black plates in 50 mM MES buffer, pH 6, containing 1 mM EDTA, 5 mM DTT, 0.001% Triton-X100, 5 pg/ μ L enzyme and 25 μ M Z-FR-AMC at 37 °C. The triazole-based derivatives were tested against hCatL, at 100 μ M, with a 10 min pre-incubation with the enzyme. The initial velocities of the DMSO control were compared to those in the presence of the compounds. Assays were executed in triplicate in two independent experiments, and enzyme activity was measured for 20 min.

[3] = test system: T. cruzi (Tulahuen trypomastigotes overexpressing β-galactosidase) in Vero cells; test: T. cruzi inhibition assay, infection model in Vero cells, β-galactosidase activity; type: cell-based, Trypanosoma cruzi; conditions: 50 μM (Ald-4 20 μM)
Protocol: To perform the assay, the drug screening method reported by Buckner et al. was adapted. Vero cells were seeded at 1 × 10^4 per well on 96-well culture plates in 100 μ L MEM-5% FBS. Tulahuen trypomastigotes overexpressing the E. coli β -galactosidase protein were distributed in triplicates on the plate. After a 2 h incubation at 37 °C, the culture media were extracted and replaced with fresh MEM-5% FBS with 1 μ M, 10 μ M or 50 μ M solutions of the triazole-based inhibitors, and the plate was incubated another 72 h at 37 °C. Ninety-six hours post infection, the cell culture media were removed and cells and intracellular amastigotes were lysed in 100 μ L lysis buffer (25 mM Tris pH 8, 2 mM EDTA, 2 mM DTT, 1% Triton X-100, 10% glycerol in ultrapure MQ water) for 10 min at 37 °C. Then, 100 μ L 2× reaction buffer (200 mM sodium phosphate pH 8, 2 mM MgCl2, 100 mM 2-mercaptoethanol and 1.33 mg.mL^−1 o-nitrophenyl- β -galactoside (ONPG)) was added and the reaction was allowed to proceed until a yellow color developed (1–2 h at 37 °C). The absorbance at 420 nm was measured in a Synergy HTX multi-mode microplate reader (Biotek Instruments, Winooski, VT, USA) and normalized to the value obtained for the infection in the absence of inhibitors. To determine its IC50, Ald-6 was evaluated at nine different concentrations (0.098, 0.195, 0.39, 0.78, 1.56 3.13 6.25, 12.5 and 50.0 μ M), following the same protocol. Each infection condition and inhibitor were tested in triplicates in four independent experiments.

[4] = 100 μM, 10 min pre-incubation of the enzyme with compound, read-out: % CZP inh.
[5] = 10 min incubation with CZP, mean ± SEM of two independent experiments, read-out: IC50 (μM) against CZP

T2 sequence (P07711 114-333): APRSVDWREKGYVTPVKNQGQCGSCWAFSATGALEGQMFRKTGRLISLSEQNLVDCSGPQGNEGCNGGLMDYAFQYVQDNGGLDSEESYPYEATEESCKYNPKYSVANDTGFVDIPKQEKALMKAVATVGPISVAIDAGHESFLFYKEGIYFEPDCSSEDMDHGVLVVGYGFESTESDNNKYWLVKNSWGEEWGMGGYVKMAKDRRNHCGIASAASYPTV
T1 sequence (P25779 123-337): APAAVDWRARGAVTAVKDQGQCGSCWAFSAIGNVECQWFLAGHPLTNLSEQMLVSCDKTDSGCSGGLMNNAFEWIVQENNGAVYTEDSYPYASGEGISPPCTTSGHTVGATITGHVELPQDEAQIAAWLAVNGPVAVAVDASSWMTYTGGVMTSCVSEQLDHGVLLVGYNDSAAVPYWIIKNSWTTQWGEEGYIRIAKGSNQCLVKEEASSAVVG

| SMILES | inhibition at 100 µM [1, 4] [%] | other results |
| --- | --- | --- |
| COC(=O)C(Cc1c[nH]cn1)n1cc(C(C2CCCCC2)N2CCc3ccccc3C2)nn1 (stereo not drawn) [Es-17] | 6 ± 3 |  |
| CSCCC(C=O)n1cc(C(NCc2ccc3c(c2)OCO3)C2CCCCC2)nn1 (stereo not drawn) [Ald-7] | 42 ± 7 |  |
| O=CC(Cc1c[nH]c2ccccc12)n1cc(C(C2CCCCC2)N2CCc3ccccc3C2)nn1 (stereo not drawn) [Ald-22] | 55 ± 9 |  |
| COC(=O)C(Cc1c[nH]c2ccccc12)n1cc(C(NCc2ccc3c(c2)OCO3)C2CCCCC2)nn1 (stereo not drawn) [Es-12] | 15 ± 2 |  |
| CCOC(=O)C(Cc1ccccc1)n1cc(C(C2CCCCC2)N2CCc3ccccc3C2)nn1 (stereo not drawn) [Es-16] | 13 ± 6 |  |
| O=CC(Cc1c[nH]cn1)n1cc(C(C2CCCCC2)N2CCc3ccccc3C2)nn1 (stereo not drawn) [Ald-17] | 38 ± 6 |  |
| O=CC(Cc1c[nH]c2ccccc12)n1cc(C(NCc2ccc3c(c2)OCO3)C2CCCCC2)nn1 (stereo not drawn) [Ald-12] | 56 ± 7 | selectivity for CZP over hCatL in words ([2]; 100 μM): selective CZP inhibitors; inhibition at 100 µM ([2]; 10 min incubation): 0%; IC50 [1, 5]: 45.4 ± 0.3 µM; times lower potency than the most active analogues (Ald-6 and Ald-10) [1]: 13.8 |
| O=CC(Cc1c[nH]cn1)n1cc(C(NCc2ccc3c(c2)OCO3)C2CCCCC2)nn1 (stereo not drawn) [Ald-4] | 83 ± 2 | selectivity for CZP over hCatL in words ([2]; 100 μM): selective CZP inhibitors; inhibition at 100 µM ([2]; 10 min incubation): 10 ± 3%; anti-T. cruzi/cytotoxicity balance in words [3]: acceptable anti-T. cruzi/cytotoxicity balance; IC50 [1, 5]: 5 ± 2 µM |
| COC(=O)C(Cc1c[nH]cn1)n1cc(C(NCc2ccc3c(c2)OCO3)C2CCCCC2)nn1 (stereo not drawn) [Es-4] | 5 ± 4 |  |
| O=CC(Cc1ccccc1)n1cc(C(C2CCCCC2)N2CCc3ccccc3C2)nn1 (stereo not drawn) [Ald-16] | 34 ± 5 |  |
| CC(O)C(C=O)n1cc(C(NCc2ccc3c(c2)OCO3)C2CCCCC2)nn1 (stereo not drawn) [Ald-11] | 58 ± 4 |  |
| COC(=O)C(Cc1c[nH]c2ccccc12)n1cc(C(C2CCCCC2)N2CCc3ccccc3C2)nn1 (stereo not drawn) [Es-22] | 1 ± 6 |  |
| COC(=O)C(CO)n1cc(C(NCc2ccc3c(c2)OCO3)C2CCCCC2)nn1 (stereo not drawn) [Es-10] | ≥ 47 | inhibition at 100 µM ([1]; read-out: % CZP inhib. wo/inc., 100 μM, without prior incubation): 43 ± 4% |
| CSCCC(C=O)n1cc(C(C2CCCCC2)N2CCc3ccccc3C2)nn1 (stereo not drawn) [Ald-18] | 16 ± 4 |  |
| COC(=O)C(CC(C)C)n1cc(C(NCc2ccc3c(c2)OCO3)C2CCCCC2)nn1 (stereo not drawn) [Es-5] | 5 ± 2 |  |
| COC(=O)C(CCC(=O)O)n1cc(C(NCc2ccc3c(c2)OCO3)C2CCCCC2)nn1 (stereo not drawn) [Es-3] | 8 ± 7 |  |
| COC(=O)[C@H](Cc1ccccc1)n1cc(C(NCc2ccc3c(c2)OCO3)C2CCCCC2)nn1 (stereo partly drawn) [Es-1] | 15 ± 2 |  |
| CC(C)CC(C=O)n1cc(C(NCc2ccc3c(c2)OCO3)C2CCCCC2)nn1 (stereo not drawn) [Ald-5] | 64 ± 2 | selectivity for CZP over hCatL in words ([2]; 100 μM): selective CZP inhibitors; inhibition at 100 µM ([2]; 10 min incubation): 24 ± 9%; IC50 [1]: 7 ± 2 µM |
| CC(C)C[C@H](NC(=O)[C@H]1O[C@@H]1C(=O)O)C(=O)NCCCCN=C(N)N [E-64, reference compound] |  | % hCatL inhib. ([2]; 100 μM, 10 min incubation): 97 ± 3%; CZP inhibition by positive control ([1]; 1 μM, 10 min preincubation): 98%; % CZP inh. ([1]; 100 μM, 10 min pre-incubation of the enzyme with compound): 98 ± 2%; % CZP inhib. wo/inc. ([1]; 100 μM, without prior incubation): 12± 8% |

| SMILES | inhibition at 100 µM [1, 4] [%] | other results |
| --- | --- | --- |
| COC(=O)C(c1ccccc1)n1cc(C(NCc2ccc3c(c2)OCO3)C2CCCCC2)nn1 (stereo not drawn) [Es-9] | 6 ± 5 |  |
| COC(=O)C(CCCNC(=N)N)n1cc(C(C2CCCCC2)N2CCc3ccccc3C2)nn1 (stereo not drawn) [Es-24] | 6 ± 1 |  |
| O=CC(Cc1ccccc1)n1cc(C(NCc2ccc3c(c2)OCO3)C2CCCCC2)nn1 (stereo not drawn) [Ald-1] | 64 ± 5 | selectivity for CZP over hCatL in words ([2]; 100 μM): selective CZP inhibitors; inhibition at 100 µM ([2]; 10 min incubation): 0%; IC50 [1]: 41 ± 4 µM; times lower potency than the most active analogues (Ald-6 and Ald-10) [1]: 12.4 |
| COC(=O)C(C(C)C)n1cc(C(NCc2ccc3c(c2)OCO3)C2CCCCC2)nn1 (stereo not drawn) [Es-2] | 9 ± 7 |  |
| COC(=O)C(Cc1ccc(O)cc1)n1cc(C(NCc2ccc3c(c2)OCO3)C2CCCCC2)nn1 (stereo not drawn) [Es-13] | 8 ± 1 |  |
| COC(=O)[C@H](CCCCN)n1cc(C(NCc2ccc3c(c2)OCO3)C2CCCCC2)nn1 (stereo partly drawn) [Es-6] | 9 ± 2 |  |
| O=CC(c1ccccc1)n1cc(C(NCc2ccc3c(c2)OCO3)C2CCCCC2)nn1 (stereo not drawn) [Ald-9] | 11 ± 3 |  |
| COC(=O)C(C)n1cc(C(NCc2ccc3c(c2)OCO3)C2CCCCC2)nn1 (stereo not drawn) [Es-8] | 8 ± 7 |  |
| O=CC(CO)n1cc(C(C2CCCCC2)N2CCc3ccccc3C2)nn1 (stereo not drawn) [Ald-20] | 83 ± 3 | selectivity for CZP over hCatL in words ([2]; 100 μM): selective CZP inhibitors; inhibition at 100 µM ([2]; 10 min incubation): 0%; anti-T. cruzi/cytotoxicity balance in words [3]: acceptable anti-T. cruzi/cytotoxicity balance; IC50 [1]: 7 ± 4 µM |
| COC(=O)C(c1ccccc1)n1cc(C(C2CCCCC2)N2CCc3ccccc3C2)nn1 (stereo not drawn) [Es-19] | 0 |  |
| CC(O)C(C=O)n1cc(C(C2CCCCC2)N2CCc3ccccc3C2)nn1 (stereo not drawn) [Ald-21] | 8 ± 7 |  |
| COC(=O)C(C(C)O)n1cc(C(C2CCCCC2)N2CCc3ccccc3C2)nn1 (stereo not drawn) [Es-21] | 0 |  |
| O=CC(CCC(=O)O)n1cc(C(NCc2ccc3c(c2)OCO3)C2CCCCC2)nn1 (stereo not drawn) [Ald-3] | 8 ± 2 | CZP inhibitory activity in words [1]: not active at all |
| COC(=O)C(C(C)O)n1cc(C(NCc2ccc3c(c2)OCO3)C2CCCCC2)nn1 (stereo not drawn) [Es-11] | 0 |  |
| COC(=O)C(CO)n1cc(C(C2CCCCC2)N2CCc3ccccc3C2)nn1 (stereo not drawn) [Es-20] | 5 ± 4 |  |
| O=CC(Cc1ccc(O)cc1)n1cc(C(NCc2ccc3c(c2)OCO3)C2CCCCC2)nn1 (stereo not drawn) [Ald-13] | 83 ± 2 | selectivity for CZP over hCatL in words ([2]; 100 μM): selective CZP inhibitors; inhibition at 100 µM ([2]; 10 min incubation): 0%; IC50 [1, 5]: 13 ± 5 µM; times lower potency than the most active analogues (Ald-6 and Ald-10) [1]: 3.9 |
| O=CC(c1ccccc1)n1cc(C(C2CCCCC2)N2CCc3ccccc3C2)nn1 (stereo not drawn) [Ald-19] | 3 ± 10 |  |
| CCOC(=O)C(CCSC)n1cc(C(C2CCCCC2)N2CCc3ccccc3C2)nn1 (stereo not drawn) [Es-18] | 0 |  |
| COC(=O)C(Cc1ccc(O)cc1)n1cc(C(C2CCCCC2)N2CCc3ccccc3C2)nn1 (stereo not drawn) [Es-23] | 1 ± 14 |  |
